One test concerns the target T1, hAhR (Homo sapiens, UniProt P35869).
T1 construct: endogenous in cells; host or cells: HEPG2 cells with stably integrated Cignal XRE (DRE) luciferase reporter
T1 sequence (P35869 11-848): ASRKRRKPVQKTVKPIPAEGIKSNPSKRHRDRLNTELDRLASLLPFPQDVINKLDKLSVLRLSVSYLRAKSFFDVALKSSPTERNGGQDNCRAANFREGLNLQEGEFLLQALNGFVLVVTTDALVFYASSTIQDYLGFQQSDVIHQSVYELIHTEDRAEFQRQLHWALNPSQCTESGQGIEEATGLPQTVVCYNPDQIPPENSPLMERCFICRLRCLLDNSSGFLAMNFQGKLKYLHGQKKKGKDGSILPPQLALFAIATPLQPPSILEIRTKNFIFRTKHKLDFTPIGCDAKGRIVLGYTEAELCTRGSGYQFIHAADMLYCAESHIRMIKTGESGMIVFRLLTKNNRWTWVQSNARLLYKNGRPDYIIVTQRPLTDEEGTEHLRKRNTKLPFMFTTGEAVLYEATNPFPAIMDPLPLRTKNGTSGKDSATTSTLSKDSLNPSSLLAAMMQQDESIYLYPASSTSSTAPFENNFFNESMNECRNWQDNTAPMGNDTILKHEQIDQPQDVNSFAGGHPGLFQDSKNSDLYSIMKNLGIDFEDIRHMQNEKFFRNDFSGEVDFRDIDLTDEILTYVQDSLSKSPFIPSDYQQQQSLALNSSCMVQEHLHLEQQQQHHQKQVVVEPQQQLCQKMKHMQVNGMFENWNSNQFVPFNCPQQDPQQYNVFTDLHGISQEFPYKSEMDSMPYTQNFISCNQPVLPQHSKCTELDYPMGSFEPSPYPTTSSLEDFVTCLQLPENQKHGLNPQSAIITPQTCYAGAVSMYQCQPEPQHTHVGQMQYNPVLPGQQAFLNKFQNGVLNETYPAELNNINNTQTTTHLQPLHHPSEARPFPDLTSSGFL
The test is described as follows: AhR antagonist DRE-luciferase reporter transcriptional assay (TCDD-induced) in HEPG2 DRE-Luc cells. The test is classed as cell-based. As to conditions: relative IC50, HEPG2 DRE-Luc cells, 3 nM TCDD, 24 h incubation; read-out: IC50 hAhR (antagonist mode). Here is the method:
The ability of compounds of formula (I) to antagonize AhR was tested as follow. HEPG2 and HEPA1C1C7 cells were maintained in MEM and αMEM without nucleosides supplemented with 10% heat inactivated FBS respectively. Stably integrated DRE-luciferase cell lines were generated by transducing the both cell lines with Cignal XRE luciferase reporter (Qiagen) lentiviral particles according to the manufacturer protocol. For both cell lines, stably integrated reporter cell lines were selected for the presence of 2 μg/mL puromycin. Following selection of stably integrated cell line pools, clonal cell lines were isolated by limiting dilution in 96-well plates. […]
To determine AhR antagonist activity of compound of formula (I), the compounds were added in a semi-log dose response using a D300e Digital Dispenser (Tecan) followed normalization with vehicle (DMSO). […] Firefly luciferase activity was measured immediately following the addition of 50 μL Luciferase Assay Reagent (Promega). The percent maximal activity for each point was determined using the following equation: (RLUsample−RLUvehicle−TCDD)/(RLUvehicle+TCDD RLUvehicle−TCDD)*100. The relative IC50, defined as the compound concentration required to reduce the TCDD induced response between the top and bottom plateau of each individual dose response curve by half, for each compound was determined using Prism7 (GraphPad Software).
On the technique in general: A reporter such as luciferase makes a cellular process visible.

Test [1] relates to human CD34+ hematopoietic stem cells (HSC). The test is described as follows: Hematopoietic stem cell expansion, CD34+ cells by flow cytometry after 12-day culture. The test is classed as cell-based. Here is the method:
The ability of compounds of formula (I) to facilitate hematopoietic stem cell expansion was determined by testing 1-methyl-7-(2-methyl-4-(6-(trifluoromethyl)pyrido[3,2-d]pyrimidin-2-yl)phenyl)-6,7-dihydro-1H-pyrazolo[3,4-f][1,4]oxazepin-8(5H)-one (compound 1) and 3-methyl-5-(2-methyl-4-(6-(trifluoromethyl)quinazolin-2-yl)phenyl)-6,7-dihydropyrazolo[1,5-a]pyrazin-4(5H)-one (compound 2) as follows.
Isolated human CD34^+ hematopoietic stem cells (HSC) were obtained from AllCells (Alameda, Calif., USA). 5,000 HSC per well were cultivated in 100 μL HSC expansion media StemSpan SFEM (StemCell Technologies; Vancouver, BC, Canada) containing 1× antibiotics (Life Technologies, Carlsbad, Calif., USA), 100 ng/mL thrombopoietin, 100 ng/mL IL-6, 100 ng/mL Flt3 ligand and 100 ng/mL stem cell factor (all R&D Systems, Minneapolis, Minn., USA) in a flat bottom 96 well tissue culture plate. 100 μL of 3-fold serial diluted compound 1 or 2 (final concentration range 0.169-10,000 nM) was added at 2× of the final concentration to HSC culture and HSC culture plates were incubated in a humidity-controlled incubator at […], 5% CO2. After 12 days, the absolute viable cell counts from each well were determined. HSC were then stained in staining buffer composed of Hank's balanced salt solution with 2% fetal bovine serum and 2 mM EDTA (all Life Technologies) at 4° C. for 1 hour with anti-CD90 APC, anti-CD34 PerCP, anti-CD38 FITC, CD45RA PE-Cy7 and anti-CD133 PE antibodies (all BD Biosciences, San Jose, Calif., USA). HSC were washed with staining buffer and HSC were analyzed by multicolor phenotype flow cytometry. The percentages of CD34^+ cells were determined as percentage of total population. Absolute counts of each population were calculated from the total number of viable cells multiplied by the percentage of each population. The EC50 value for the frequency of CD34+ cells, defined as the compound concentration with half maximal response on the dose response curve, was calculated using Prism 7 (GraphPad Software, La Jolla, Calif., USA).
A general note: In flow cytometry, cells or beads pass a laser one at a time.

Setting [2] is: compound concentration 3,333 nM.

What is called IC50 is the midpoint of a concentration-inhibition curve. With `Cc1cc(-c2ncc3cc(C(F)(F)F)ccc3n2)ccc1N1CCOc2cn[nH]c2C1=O` [Example 033, 7-(2-methyl-4-(6-(trifluoromethyl)quinazolin-2-yl)phenyl)-6,7-dihydro-1H-pyrazolo[3,4-f][1,4]oxazepin-8(5H)-one], the IC50 at hAhR is less than 200 nM. The same measure, in the same setting: with `Cc1cc(-c2ncc3cc(C(F)(F)F)ccc3n2)ccc1N1CCOc2cnn(CCO)c2C1=O` [Example 034, 1-(2-hydroxyethyl)-7-(2-methyl-4-(6-(trifluoromethyl)quinazolin-2-yl)phenyl)-6,7-dihydro-1H-pyrazolo[3,4-f][1,4]oxazepin-8(5H)-one] the figure was 200 to 500 nM.

As for `Cc1cc(-c2ncc3nc(C(F)(F)F)ccc3n2)ccc1N1CCOc2cnn(C)c2C1=O` [Example 001, 1-methyl-7-(2-methyl-4-(6-(trifluoromethyl)pyrido[3,2-d]pyrimidin-2-yl)phenyl)-6,7-dihydro-1H-pyrazolo[3,4-f][1,4]oxazepin-8(5H)-one], in test [1] (setting [2]), the “CD34+ cell counts, fold expansion” value is listed as 2.4 fold and the “frequency of CD34+ HSC, fold increase” value is given as 3.1 fold. For the molecule `Cc1cc(-c2ncc3cc(C(F)(F)F)ccc3n2)ccc1N1CCn2ncc(C)c2C1=O` [Example 002, 3-methyl-5-(2-methyl-4-(6-(trifluoromethyl)quinazolin-2-yl)phenyl)-6,7-dihydropyrazolo[1,5-a]pyrazin-4(5H)-one], the “frequency of CD34+ HSC, fold increase” value in test [1] (compound concentration 1,111 nM) was 3.6 fold. Further, the “CD34+ cell counts, fold expansion” value in test [1] (compound concentration 10,000 nM) came to 4.0 fold.

These data come from US20210254006A1, “METHODS OF CULTURING AND/OR EXPANDING STEM CELLS AND/OR LINEAGE COMMITTED PROGENITOR CELLS USING LACTAM COMPOUNDS” (IDEAYA BIOSCIENCES, INC., priority 2018, published 2021).
